Measured values: ChEMBL document CHEMBL3044672, “N9- and N7-(Chloromethyl Phenymethyl)Chloropurine Derivatives from , '-Dichloroxylenes: Synthesis and Anticancer Activity” (2005)

Experiments:
Format in all cases: functional
SF-295 = test: Cytotoxicity against Homo sapiens (human) SF295 cells after 48 hr by sulforhodamine B assay; conditions: SF-295, 48 h
HOP-92 = test: Cytotoxicity against Homo sapiens (human) HOP92 cells after 48 hr by sulforhodamine B assay; conditions: HOP-92, 48 h
M14 = test: Cytotoxicity against Homo sapiens (human) M14 cells after 48 hr by sulforhodamine B assay; conditions: M14, 48 h
SK-MEL-2 = test: Cytotoxicity against Homo sapiens (human) SK-MEL-2 cells after 48 hr by sulforhodamine B assay; conditions: SK-MEL-2, 48 h
MCF7 = test: Cytotoxicity against Homo sapiens (human) MCF7 cells assessed as cell growth at 10^-4 M after 48 hr by Alamar blue assay; conditions: MCF7, 48 h, read-out: Activity
MOLT-4 = test: Cytotoxicity against Homo sapiens (human) MOLT4 cells after 48 hr by sulforhodamine B assay; conditions: MOLT-4, 48 h
SF-268 = test: Cytotoxicity against Homo sapiens (human) SF268 cells after 48 hr by sulforhodamine B assay; conditions: SF-268, 48 h
RXF 393 = test: Cytotoxicity against Homo sapiens (human) RXF393 cells after 48 hr by sulforhodamine B assay; conditions: RXF 393, 48 h
HOP-62 = test: Cytotoxicity against Homo sapiens (human) HOP62 cells after 48 hr by sulforhodamine B assay; conditions: HOP-62, 48 h
SNB-19 = test: Cytotoxicity against Homo sapiens (human) SNB19 cells after 48 hr by sulforhodamine B assay; conditions: SNB-19, 48 h
CAKI-1 = test: Cytotoxicity against Homo sapiens (human) Caki1 cells after 48 hr by sulforhodamine B assay; conditions: CAKI-1, 48 h
EKVX = test: Cytotoxicity against Homo sapiens (human) EKVX cells after 48 hr by sulforhodamine B assay
UACC-257 = test: Cytotoxicity against Homo sapiens (human) UACC257 cells after 48 hr by sulforhodamine B assay; conditions: UACC-257, 48 h
MDA-MB-231 = test: Cytotoxicity against Homo sapiens (human) MDA-MB-231 cells after 48 hr by sulforhodamine B assay; conditions: MDA-MB-231, 48 h
HCC 2998 = test: Cytotoxicity against Homo sapiens (human) HCC2998 cells after 48 hr by sulforhodamine B assay; conditions: HCC 2998, 48 h
NCI-H460 = test: Cytotoxicity against Homo sapiens (human) NCI-H460 cells after 48 hr by sulforhodamine B assay; conditions: NCI-H460, 48 h
DU-145 = test: Cytotoxicity against Homo sapiens (human) DU145 cells after 48 hr by sulforhodamine B assay; conditions: DU-145, 48 h
[1] = Cytotoxicity against Homo sapiens (human) NCI-ADR-RES cells after 48 hr by sulforhodamine B assay
T47D = test: Cytotoxicity against Homo sapiens (human) T47D cells after 48 hr by sulforhodamine B assay
OVCAR-5 = test: Cytotoxicity against Homo sapiens (human) OVCAR5 cells after 48 hr by sulforhodamine B assay; conditions: OVCAR-5, 48 h
LOX IMVI = test: Cytotoxicity against Homo sapiens (human) LOXIMVI cells after 48 hr by sulforhodamine B assay
TK-10 = test: Cytotoxicity against Homo sapiens (human) TK10 cells after 48 hr by sulforhodamine B assay; conditions: TK-10, 48 h
IGROV-1 = test: Cytotoxicity against Homo sapiens (human) IGROV1 cells after 48 hr by sulforhodamine B assay; conditions: IGROV-1, 48 h
Hs-578T = test: Cytotoxicity against Homo sapiens (human) Hs 578T cells after 48 hr by sulforhodamine B assay
A549 = test: Cytotoxicity against Homo sapiens (human) A549 cells after 48 hr by sulforhodamine B assay; conditions: A549, 48 h
NCI-H322M = test: Cytotoxicity against Homo sapiens (human) NCI-H322M cells after 48 hr by sulforhodamine B assay
SK-MEL-5 = test: Cytotoxicity against Homo sapiens (human) SK-MEL-5 cells after 48 hr by sulforhodamine B assay; conditions: SK-MEL-5, 48 h
NCI-H23 = test: Cytotoxicity against Homo sapiens (human) NCI-H23 cells after 48 hr by sulforhodamine B assay; conditions: NCI-H23, 48 h
UACC-62 = test: Cytotoxicity against Homo sapiens (human) UACC62 cells after 48 hr by sulforhodamine B assay; conditions: UACC-62, 48 h
SK-OV-3 = test: Cytotoxicity against Homo sapiens (human) SKOV3 cells after 48 hr by sulforhodamine B assay; conditions: SK-OV-3, 48 h
ACHN = test: Cytotoxicity against Homo sapiens (human) ACHN cells after 48 hr by sulforhodamine B assay
786-0 = test: Cytotoxicity against Homo sapiens (human) 786-0 cells after 48 hr by sulforhodamine B assay; conditions: 786-0, 48 h
[2] = read-out: LC50 (the source's name)

`ClCc1ccccc1Cn1cnc2ncnc(Cl)c21` gave a GI50 (SF-295) of 7.94 µM, a TGI (SF-295) of 20.4 µM and a CC50 (SF-295; [2]) of 46.8 µM. The GI50 (HOP-92) was 4.36 µM, the TGI (HOP-92) was 12.9 µM and the CC50 (HOP-92; [2]) was 51.3 µM. For the same compound, the GI50 (M14) was 1.9 µM, the LC50 (M14) was 27.5 µM and the TGI (M14) was 5.12 µM. For the same compound, the GI50 (SK-MEL-2) was 4.16 µM, the LC50 (concentration killing 50% of cells) (SK-MEL-2) was greater than 100 µM and the TGI (SK-MEL-2) was 19.5 µM. The growth at 100 µM (MCF7) was 1%, the GI50 (MOLT-4) was 1.65 µM and the TGI (MOLT-4) was 4.26 µM. For the same compound, the CC50 (MOLT-4; [2]) was 16.6 µM, the GI50 (SF-268) was 4.78 µM and the TGI (SF-268) was 24.5 µM. The CC50 (SF-268; [2]) was greater than 100 µM, the GI50 (RXF 393) was 1.65 µM and the TGI (RXF 393) was 6.54 µM. It also gave a CC50 (RXF 393; [2]) greater than 100 µM, a GI50 (HOP-62) of 11.2 µM and a TGI (HOP-62) of 28.8 µM. The CC50 (HOP-62; [2]) was 75.9 µM, the GI50 (SNB-19) was 7.24 µM and the LC50 (SNB-19) was greater than 100 µM. It also gave a TGI (SNB-19) greater than 100 µM, a GI50 (CAKI-1) of 2.34 µM and a TGI (CAKI-1) of 4.16 µM. It also gave a CC50 (CAKI-1; [2]) of 7.41 µM, a GI50 (EKVX) of 5.37 µM and a TGI (EKVX) of 17.8 µM. It also gave a CC50 (EKVX; [2]) of 45.7 µM, a GI50 (UACC-257) of 5.88 µM and an LC50 (concentration killing 50% of cells) (UACC-257) of 61.6 µM. For the same compound, the TGI (UACC-257) was 21.9 µM, the GI50 (MDA-MB-231) was 2.75 µM and the LC50 (MDA-MB-231) was 25.1 µM. It also gave a TGI (MDA-MB-231) of 6.91 µM, a GI50 (HCC 2998) of 2.23 µM and a TGI (HCC 2998) of 4.26 µM. For the same compound, the CC50 (HCC 2998; [2]) was 7.94 µM, the GI50 (NCI-H460) was 13.5 µM and the TGI (NCI-H460) was 60.2 µM. The CC50 (NCI-H460; [2]) was greater than 100 µM, the GI50 (DU-145) was 2.95 µM and the LC50 (DU-145) was 33.1 µM. For the same compound, the TGI (DU-145) was 10.2 µM, the GI50 [1] was 2.08 µM and the LC50 (concentration killing 50% of cells) [1] was 6.54 µM. For the same compound, the TGI [1] was 4.46 µM, the GI50 (T47D) was 1.99 µM and the LC50 (T47D) was 4.26 µM. It also gave a TGI (T47D) of 4.26 µM, a GI50 (OVCAR-5) of 2.81 µM and a TGI (OVCAR-5) of 7.24 µM. It also gave a CC50 (OVCAR-5; [2]) of 26.9 µM, a GI50 (LOX IMVI) of 1.34 µM and an LC50 (LOX IMVI) of 7.07 µM. It also gave a TGI (LOX IMVI) of 3.09 µM, a GI50 (TK-10) of 3.46 µM and a TGI (TK-10) of 9.54 µM. It also gave a CC50 (TK-10; [2]) of 33.9 µM, a GI50 (IGROV-1) of 4.26 µM and an LC50 (IGROV-1) greater than 100 µM. The TGI (IGROV-1) was 22.9 µM, the GI50 (Hs-578T) was 2.29 µM and the LC50 (Hs-578T) was 66.1 µM. The TGI (Hs-578T) was 6.02 µM, the GI50 (A549) was 4.46 µM and the TGI (A549) was 24 µM. For the same compound, the CC50 (A549; [2]) was greater than 100 µM, the GI50 (NCI-H322M) was 4.67 µM and the TGI (NCI-H322M) was 15.8 µM. For the same compound, the CC50 (NCI-H322M; [2]) was 40.7 µM, the GI50 (SK-MEL-5) was 1.38 µM and the LC50 (SK-MEL-5) was 15.8 µM. It also gave a TGI (SK-MEL-5) of 4.07 µM, a GI50 (NCI-H23) of 5.01 µM and a TGI (NCI-H23) of 17.4 µM. For the same compound, the CC50 (NCI-H23; [2]) was 49 µM, the GI50 (UACC-62) was 1.86 µM and the LC50 (concentration causing 50% net cell kill) (UACC-62) was 19.1 µM. The TGI (UACC-62) was 5.12 µM, the GI50 (SK-OV-3) was 7.58 µM and the LC50 (SK-OV-3) was 85.1 µM. For the same compound, the TGI (SK-OV-3) was 26.9 µM, the GI50 (ACHN) was 1.99 µM and the TGI (ACHN) was 4.26 µM. The CC50 (ACHN; [2]) was 9.12 µM, the GI50 (786-0) was 3.98 µM and the LC50 (786-0) was 47.9 µM. For the same compound, the TGI (786-0) was 12.9 µM.
